Source: US5466610A, “Immunoassays for insulin sensitivity enhancers, insulin sensitivity enhancer antibodies, and non-thiazolidinedione insulin sensitivity enhancer compositions” (Eli Lilly and Company, priority 1993, dated 1995)
Values belong to the compound of their own block, whether it stands above or below them.

Key:
[1] = system: monoclonal antibody 13E3; assay: Fluorescent antibody competition assay, IC50 determined with MoAb 13E3; type: binding, mouse
Description: (§1) All hybridoma media were screened for monoclonal anti-CS-045 antibodies on day 17 after fusion. The fluorescent antibody capture method was used and approximately 60 monoclonal antibodies were positive for binding of the CS-045 bPE fluorogen. Among these positive monoclonal antibodies, approximately 6 had binding affinity for 3 tested thiazolidinedione ISEs--LY 282449, [drawing 2] CS-045, and ciglitazone. Fifty percent binding inhibitory concentrations (IC50) were determined and data from 4 monoclonal antibodies are shown in Table 1 below.
(§2) Serial dilutions of test compound, fermentation broth, or tissue containing test compound or putative anti-idiotype culture supernatant (20 μl/well) were incubated 20 minutes in 96-well Pandex plates with the appropriate antibody (20 μl/well; 1 μg/ml) plus either goat anti-mouse IgG Latex beads or goat anti-rabbit IgG linked to polystyrene beads (IDEXX) (20 μl/well; 1:2 dilution). Fluorescent reference particles (IDEXX) were included in all assays to minimize well-to-well variation in filtration. […] Incubations were terminated after 20 minutes by vacuum filtration and the polystyrene particles retained on the Pandex filters were then washed twice with TBS-A buffer (described below) and solid phase fluorescence determined as described above.
(§3) Assay buffers typically contained bovine serum albumin (Sigma) at 0.2% (for monoclonal antibody assays) or 0.5% BLOTTO (non-fat dry milk for rabbit antibody assays). Percent inhibition of binding in test incubations was calculated in relationship to binding in control incubations in which no test compound was added using the following formula: % inhibition=[1-(fluorescence at 575/620 nm in test incubations divided by fluorescence at 575/620 nm in control incubations)×100)]. Concentrations of test compound in fermentation broth or plasma was calculated by interpolation from a standard curve generated with known concentrations of the appropriate compound as described in Taber et al., Clinical Chemistry, 37(2):254 (1991).

[2] = system: 13E3 F(ab')2 fragments; assay: ELISA competitive inhibition between CS-045 and anti-idiotypic antibodies on 13E3 F(ab')2 fragments; type: binding, mouse; conditions: 0-200 μM CS-045; FIG. 3
Description: To test whether or not CS-045 could, in turn, displace these anti-idiotypicantibodies, 0.3 μg/well of 13E3 F(ab')2 fragments were coated onto microtiter plates and blocked with 1% BLOTTO (non-fat dry milk). Between 0-200 μM of CS-045 was added to duplicate wells. After approximately two hours at room temperature, wells were washed with BLOTTO and 500 ng of anti-idiotypic antibody 2E5 or 7E7 was added for approximately 1 hour. Goat anti-mouse (Fc -specific) conjugated with horseradish peroxidase was added and, after 30 minutes, washed 3 times with BLOTTO. A peroxidase substrate, tetramethylbenzidine (Kirkegaard and Perry Laboratories, Gaithersberg, Md.) was added and color was developed for approximately 30 minutes at room temperature.

[3] = system: monoclonal antibody 8D6; assay: Fluorescent antibody competition assay, IC50 determined with MoAb 8D6; type: binding, mouse
Description: as §1, §2, §3

[4] = system: monoclonal antibody 10E1; assay: Fluorescent antibody competition assay, IC50 determined with MoAb 10E1; type: binding, mouse
Description: as §1, §2, §3

[5] = system: monoclonal antibody 8F1; assay: Fluorescent antibody competition assay, IC50 determined with MoAb 8F1; type: binding, mouse
Description: as §1, §2, §3

[6] = system: monoclonal antibody 13E3; assay: High-volume screen, fluorescent antibody competition assay (inhibition of binding of CS-045 bPE); parameters: species or system mouse; conditions: for % inhibition in screen: approximately 2 μg/ml final concentration, CS-045 bPE binding to 13E3; for IC50: non-thiazolidinedione hits from high-volume screen
Description: (§4) Serial dilutions of test compound, fermentation broth, or tissue containing test compound or putative anti-idiotype culture supernatant (20 μl/well) were incubated 20 minutes in 96-well Pandex plates with the appropriate antibody (20 μl/well; 1 μg/ml) plus either goat anti-mouse IgG Latex beads or goat anti-rabbit IgG linked to polystyrene beads (IDEXX) (20 μl/well; 1:2 dilution). Fluorescent reference particles (IDEXX) were included in all assays to minimize well-to-well variation in filtration. Fluorescent CS-045 bPE or LY 301318 bPE (20 μl/well; 1:2,000 dilution) was then added to the wells. Incubations were terminated after 20 minutes by vacuum filtration and the polystyrene particles retained on the Pandex filters were then washed twice with TBS-A buffer (described below) and solid phase fluorescence determined as described above.
as §3
The fluorescent antibody competition assay for high-volume screening was adapted as described below. Goat anti-mouse particles (1:2 dilution), fluorescent reference particles (dilution was optimized for each lot), and monoclonal antibody 13E3 (1 μg/ml) were premixed in TBS-A reaction buffer (0.02M Tris, 0.15M NaCl, 0.2% bovine serum albumin, 0.01% thimerosal, pH 7.5) and 40 μls was added to each well of the Pandex plate. Synthetic organic compounds (dissolved at 5 mg/ml DMSO and then diluted in TBS-A reaction buffer to 2 μg/ml) or 1:40 dilutions of fermentation broths were added to appropriate wells (20 μl/well) and incubated for approximately 20 minutes at room temperature. To each well was next added 20 μl of CS-045 bPE fluorogen; this final mixture was again incubated for approximately 20 minutes at room temperature in the dark. Wells were then aspirated by vacuum filtration and washed twice with TBS-A reaction buffer, and surface fluorescence was read at 545/575 nm and 590/620 nm using the Screen Machine (IDEXX Laboratories, Westbrook, Me.). Each Pandex plate contained both a negative control (only reaction buffer) and a positive control (LY 282449).
Final concentrations of synthetic organic compounds in high-volume screens was approximately 2 μg/ml and final concentrations of filtered fermentation broths were 1:40 (v/v). Wells that produced greater than 50% inhibition of binding of CS-045 bPE on both the initial screening and on retesting were considered positives. […] This problem was eliminated by inspection of data from each channel.

[7] = system: diabetic female (Avy/a) mice; assay: Fed blood glucose in dexamethasone-treated diabetic female Avy/a mice; type: in vivo, mouse; conditions: subcutaneous, three days; FIG. 4
Description: In order to determine if any of these novel, non-thiazolidinedione structures had anti-diabetic activity, LY 116196 was administered subcutaneously for three days to female Avy/a mice, which had been made diabetic by implantation of dexamethasone pellets. These dexamethasone-treated mice are characterized by both hyperglycemia and hyperinsulinemia and are models of type II diabetes. Sulfonylureas and other insulin secretagogues have little, if any, effect on blood glucose concentrations in this insulin-resistant animal model. […] Thus, this high-volume screen has detected a novel, anti-diabetic compound, LY 116196.

[8] = Plasma levels of LY 116196 by fluorescent antibody competition assay; type: in vivo, mouse; conditions: for concentration at 1 h: 1 hr after third injection; for concentration at 3 h: 3 hr after third injection; for concentration at 6 h: 6 hr after third injection
Description: as §4, §3
In the same experiment described in FIG. 4, plasma was prepared from tail blood drawn at 1, 3, 6, and 24 hours after the third subcutaneous injection of LY 116196. Plasma concentrations of LY 116196 (shown in Table 5) were determined directly by the fluorescent antibody competition assay using standards of LY 116196 diluted in TBS-A buffer containing 10% (v/v) normal mouse plasma. This method also has been used to measure blood concentrations of several compounds recognized by monoclonal antibody 13E3 and/or other antibodies produced by the methods described above. Thus, these reagents appear to have general utility for determining […] and tissue concentrations of immunologically positive compounds.

SMILES: CCCCCC(=O)c1ccc(OC(C)(C)C(=O)O)cc1 [LY 044047]
% inhibition in screen [6]: 61%
IC50 [6]: 4000 nM

SMILES: FC(F)(F)c1nc2cc(Cl)c(Cl)cc2[nH]1 [LY 047310]
% inhibition in screen [6]: 60%
IC50 [6]: 5000 nM

SMILES: CC(C)(Oc1ccc(C(=O)c2ccc(OC(C)(C)C(=O)O)cc2)cc1)C(=O)O [LY 116196]
Fed blood glucose [7]: effectively lowered fed blood glucose
Relative fluorescence, sample channel ([6]; 545/575 nm, 4.0 μM): 360
Relative fluorescence, reference channel ([6]; 590/620 nm, 4.0 μM): 6,500
% inhibition in screen [6]: 105%
IC50 [6]: 60 nM
Plasma concentration of LY 116196 ([8]; 30 mg s.c., 24 hr after third injection): 0 nM
Plasma concentration of LY 116196 ([8]; 100 mg s.c., 24 hr after third injection): 0 nM
concentration at 1 h ([8]; mouse, plasma, sc, 30 mg s.c.): 25 ± 11 µM
concentration at 3 h ([8]; mouse, plasma, sc, 30 mg s.c.): 0.32 ± 0.2 µM
concentration at 6 h ([8]; mouse, plasma, sc, 30 mg s.c.): 0.104 ± 0.052 µM
concentration at 1 h ([8]; mouse, plasma, sc, 100 mg s.c.): 83.3 ± 8 µM
concentration at 3 h ([8]; mouse, plasma, sc, 100 mg s.c.): 6 ± 1.6 µM
concentration at 6 h ([8]; mouse, plasma, sc, 100 mg s.c.): 0.268 ± 0.088 µM
concentration at 1 h ([8]; mouse, plasma, sc, 300 mg s.c.): 528 ± 72 µM
concentration at 3 h ([8]; mouse, plasma, sc, 300 mg s.c.): 24 ± 5.5 µM
concentration at 6 h ([8]; mouse, plasma, sc, 300 mg s.c.): 6.4 ± 3 µM
concentration at 24 h ([8]; mouse, plasma, sc, 300 mg s.c., 24 hr after third injection): 0.452 ± 0.022 µM

SMILES: CN(C)C=Nc1nc2c(s1)CCc1sc(C=NN(C)C)nc1-2 [LY 181036]
% inhibition in screen [6]: 90%
IC50 [6]: 2000 nM

SMILES: CCOC(=O)C(C)OP(=O)(Nc1ccccc1)OC(C)C(=O)OCC (stereo not shown) [LY 222072]
% inhibition in screen [6]: 101%
IC50 [6]: 8000 nM

SMILES: CN1C(=CC(=C(C=Cc2ccc3ccccc3[n+]2C)Oc2ccccc2O)c2ccccc2)C=Cc2ccccc21 [LY 283909]
% inhibition in screen [6]: 70%

SMILES: O=P(O)(O)c1ccc(N=Nc2cc(C(F)(F)F)cc3nc(C(F)(F)C(F)F)[nH]c23)cc1 [LY 296345]
% inhibition in screen [6]: 94%
IC50 [6]: 250 nM

SMILES: O=C(CC(=O)Nc1nc(-c2ccc(Cl)cc2)cs1)NCCO [LY 305329]
% inhibition in screen [6]: 53%
IC50 [6]: 3600 nM

SMILES: O=C(O)CC(=O)Nc1nc(-c2ccc(Cl)cc2)cs1 [LY 305334]
% inhibition in screen [6]: 89%
IC50 [6]: 250 nM

SMILES: O=C(Nc1ccc(Br)c(Cl)c1)C(F)(C(F)(F)F)C(F)(F)F [LY 800663]
% inhibition in screen [6]: 65%
IC50 [6]: 8000 nM

SMILES: N#Cc1cc(F)cc(F)c1NC(=O)c1ccc(Cl)c(Cl)c1 [LY 820960]
% inhibition in screen [6]: 55%
IC50 [6]: 4000 nM

Now from value to compound, other results behind:

IC50 [1]: 200 nM
IC50 [3]: 77 nM
IC50 [4]: 30 nM
IC50 [5]: 1150 nM
SMILES: Cc1c(C)c2c(c(C)c1O)CCC(C)(COc1ccc(CC3SC(=O)NC3=O)cc1)O2 (stereo not shown) [CS-045]
Displacement of anti-idiotypic antibodies 2E5 and 7E7 [2]: can displace two anti-idiotypic antibodies

IC50 [1]: 1160 nM
IC50 [3]: 125 nM
IC50 [4]: 989 nM
IC50 [5]: 12300 nM
SMILES: CC1(COc2ccc(CC3SC(=O)NC3=O)cc2)CCCCC1 (stereo not shown) [Ciglitazone, ciglitazone]

% inhibition in screen [6]: 87%
IC50 [6]: 2000 nM
SMILES: CC(C)(Oc1ccc(/C=C/C(=O)c2ccccc2)cc1)C(=O)O [LY 099238]

% inhibition in screen [6]: 89%
IC50 [6]: 2000 nM
SMILES: O=C(O)COc1ccccc1/C=N/N=C/c1ccccc1OCC(=O)O [LY 281809]

IC50 [1]: 520 nM
IC50 [3]: 4760 nM
IC50 [4]: 1410 nM
IC50 [5]: 4980 nM
SMILES: O=C1NC(=O)C(Cc2ccc3oc(Cc4ccc5ccccc5c4)nc3c2)S1 (stereo not shown) [LY 282449]

% inhibition in screen [6]: 88%
IC50 [6]: 250 nM
SMILES: O=c1[nH]c(=O)n(Cc2ccc(OCCc3coc(-c4ccccc4)n3)cc2)o1 [LY 301563]
